Measurements reported in publication doi:10.1101/2023.06.27.546672v1 (biorxiv, 2023).

Target: T1, apo-sMlaD (Escherichia coli, UniProt P64604)
T1 sequence (P64604 29-183 limits assumed): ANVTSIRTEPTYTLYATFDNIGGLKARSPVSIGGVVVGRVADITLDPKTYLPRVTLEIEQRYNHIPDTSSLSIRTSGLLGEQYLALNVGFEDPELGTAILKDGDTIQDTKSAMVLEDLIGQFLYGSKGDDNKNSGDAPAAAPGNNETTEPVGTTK
Test: isothermal titration calorimetry
Assay type: binding

| SMILES | Kd [µM] |
| --- | --- |
| C[C@H](CCC(=O)O)[C@H]1CC[C@H]2[C@@H]3[C@H](O)C[C@@H]4C[C@H](O)CC[C@]4(C)[C@H]3CC[C@]12C [CDOC] | 61.6 ± 15.6 |
| C[C@H](CCC(=O)O)[C@H]1CC[C@H]2[C@@H]3CC[C@@H]4C[C@H](O)CC[C@]4(C)[C@H]3C[C@H](O)[C@]12C [DOC] | ~100 |
